Test results taken from patent US20080153795A1, “Medicaments and methods for wound healing” (RENOVO LIMITED, priority 2006, published 2008).

What was measured:
[1] = system: human punch biopsy wounds; assay: Human punch biopsy wounds, re-epithelialisation by histology; type: in vivo; details: 100 μl intradermal 10 minutes before wounding, 3 mm punch biopsy
Excerpt: Healthy male and post-menopausal female volunteers were chosen as the subjects of the study. 44 healthy subjects were recruited to the study, of whom, 40 were healthy males (aged 18-75 years) and 4 were post-menopausal females (aged 53-69 years). The average age of subjects recruited to this study was 42 years. The post-menopausal status of female subjects was confirmed by quantification of serum levels of oestradiol and follicle stimulating hormone (FSH). Serum levels of oestradiol were required to be <90 pmol/L, and follicle stimulating hormone levels >31 IU/L.
Each subject had three wounds treated with active drug, one corresponding to each of three concentrations of the medicaments produced; a fourth wound was treated with placebo control. The test medicaments and placebo control were each administered intradermally, as a single dose, at a volume of 100 μl per wound site (the upper, inner aspect of each arm), 10-minutes before wounding.
Subjects received 3 mm punch biopsies at the sites where the medicaments had been administered. After wounding, all sites received moist wound healing dressings (Standard Care).
Biopsy sites were excised, using a 5 mm punch biopsy, three days after wounding. Excised wounds were preserved for histological assessment of re-epithelialisation by image analysis. All histological assessments of early wound healing events were made using preserved 5 micron-thickness wound sections taken from the widest part of each excised biopsy site. Sections were stained with Haematoxylin and Eosin to aid visualisation of structural features, and measurements made using image analysis software. The distance traveled by the epithelium is derived from two histological measurements: the freehand total wound diameter and the freehand non-epithelialised wound diameter. […] Percentage re-epithelialisation for the new epithelium was calculated as a proportion of the total wound diameter. The average percentage re-epithelialisation value was calculated from the 44 wounds of each treatment group.

[2] = application of 100 μg in a gel to an epidermal surface, six hours from application; cited from earlier work

Compound	re-epithelialisation three days after wounding ([1]; 0.02 μg/100 μl (0.00002%) medicament) [%]	re-epithelialisation three days after wounding ([1]; 0.1 μg/100 μl (0.0001%) medicament) [%]	re-epithelialisation three days after wounding ([1]; 0.2 μg/100 μl (0.0002%) medicament) [%]	applied oestradiol found in the skin or having passed through the skin [2] [µg]
C[C@]12CC[C@@H]3c4ccc(O)cc4CC[C@H]3[C@@H]1CC[C@@H]2O [17β-oestradiol]	37.4	42.3	42.6	
C[C@]12CC[C@@H]3c4ccc(O)cc4CC[C@H]3[C@@H]1CC[C@@H]2O [oestradiol]				15.7
